Experimental data taken from patent US20250367229A1, “Treatment of Immune-Related Disorders, Kidney Disorders, Liver Disorders, Hemolytic Disorders, and Oxidative Stress-Associated Disorders Using NRH, NARH and Reduced Derivatives Thereof” (MitoPower LLC, priority 2021, published 2025).

Tests used:
[1] = Stability in human serum in vitro (absorbance over time); assay type: in vitro ADME; details: 100 μM, 37° C.
Method: Three blood samples were collected from healthy human donors with the same blood group in serum separator vacutainer gel tubes. The samples were centrifuged at 1,800 g to separate serum. The serum samples obtained were pooled together into a separate tube.
NR, NRH and NRH-triacetate (NRHTA) were initially dissolved in DMSO and then diluted with normal saline to obtain a 1 mM stock solution of each compound. 100 μL of stock solution was added to 900 μL of pooled serum to assess the stability of the test compound in human serum. 200 μL of saline with 1,800 μL of pooled serum was used to prepare a solution for blanking and as a reference measurement. The stock solutions were diluted in the pooled serum and normal saline to prepare 100 μM solutions of the test compounds.
In previous experiments, spectral scans between 190 nm and 1100 nm were performed to determine absorbance maxima for NR, NRH and NRHTA, which have maximal absorbance at 265 nm, 340 nm and 331 nm, respectively, in solution.
The stability of a test compound in human serum was determined by a change in the concentration of the compound as measured by a change in absorbance at the maximal absorbance wavelength for the compound as a function of time. The test compounds at 100 μM were incubated in human serum at 37° C. Absorbance measurements were made at 0 min (T0), 5 min, 30 min, 120 min, 240 min, 360 min and 1440 min (24 hr). The relative change in absorbance compared to T0 was plotted and used for statistical analysis. The analysis was performed in triplicates.

[2] = test system: HEK293 cells; assay: NADH/NAD+ ratio in H2O2-exposed HEK293 cells (NAD/NADH-Glo); assay type: cell-based; details: NRH at 100 and 1000 μM, NR at all tested concentrations (0.01-1000 μM)
Method: HEK293 cells were trypsinized and plated at a density of 60,000 cells per well. The cells were then treated with H2O2 (600 μM prepared with Dulbecco's Modified Eagle Medium [DMEM]) for 30 min. The media was then replaced with serum media (DMEM supplemented with 10% fetal bovine serum [FBS]) containing NRH or NR, and were incubated at 37° C. under 6% CO2 for 30 min or 6 hr. The cells were incubated with the following concentrations of NRH or NR: 0.01, 0.1, 1.0, 10, 100 and 1000 μM. NAD^+ and NADH levels at 30 min and 6 hr were estimated using the NAD/NADH-Glo Promega Bioluminescent assay. The results were expressed as fold change relative to the values obtained with untreated cells.

[3] = test system: peripheral blood mononuclear cells (PBMCs); assay: Extracellular acidification rate (ECAR, a measure of glycolysis) in activated PBMCs, Seahorse XF; assay type: cell-based, human; details: 250 μM, 4 hr, PBMCs stimulated with anti-CD3 and anti-CD28 antibodies
Method: PBMCs (1.5×10^6) obtained from a healthy human adult donor were unstimulated or stimulated with anti-CD3 and anti-CD28 antibodies (1 μg/mL each) to induce T-cell activation, in the absence or presence of 250 μM NRH for 4 hr. The cells were then washed and plated on poly-D-lysine-coated Seahorse XF microplates at a density of 3×10^5 cells per well (5 replicates). The plates were centrifuged briefly and incubated at 37° C. in a non-CO2 incubator for 30 min to settle the cells in the bottom of the plate. Extracellular acidification rate (ECAR, a measure of glycolysis) and oxygen consumption rate (OCR, a measure of oxidative phosphorylation) were determined using a Seahorse XF cell mito stress test kit and a Seahorse Xfe96 analyzer (Agilent Technologies, Santa Clara, California) under basal condition or in response to 1.0 μM oligomycin (an inhibitor of ATP synthase), 1.5 μM carbonyl cyanide-p-trifluoromethoxyphenylhydrazone (FCCP, a mitochondrial uncoupler), 0.5 μM rotenone (an inhibitor of electron transport at complex I) and antimycin A (an inhibitor of electron transport at cytochrome c reductase). PBMCs include monocytes and lymphocytes including T cells, B cells and natural killer cells.

[4] = test system: CD4^+ T cells; assay: Ex vivo polyclonal immune activation model: cytokine production in CD4+ T cells; assay type: cell-based, human; details: stimulated with anti-CD3 and anti-CD28 antibodies; data not shown
Method: Heparinized venous blood was collected from healthy human adult donors. Peripheral blood mononuclear cells (PBMCs) were isolated by Ficoll-Hypaque density-gradient centrifugation. PBMCs (1.0×10^6) were seeded in round-bottom, 96-well plates in 200 μL of medium, unstimulated or stimulated with an anti-CD3 antibody ([…], clone-HIT3a, Biolegend) plus an anti-CD28 antibody (1 μg/mL, clone-CD28.2, Biolegend) to induce T-cell activation, and incubated in cell-culture medium. The PBMCs were unstimulated or stimulated with anti-CD3 and anti-CD28 antibodies to induce T-cell activation, in the absence or presence of 250 μM NRH. After 18 hours of incubation, lymphocytes were analyzed for intracellular levels of IFN-γ, TNF-α and IL-2 by flow cytometry. Intracellular cytokine production was stopped by treating the cells with Golgi stop after 1 hr of treatment.

SMILES: NC(=O)C1=CN([C@@H]2O[C@H](CO)[C@@H](O)[C@H]2O)C=CC1 [NRH, N-(β-D-ribofuranosyl)dihydronicotinamide]
- compound remaining intact in human serum after 6 hr ([1]; 6 hr): Most of both NRH and NRH-triacetate remained intact
- stability in human serum compared with NR ([1]; up to 24 hr, p<0.05): much more stable
- NADH/NAD+ ratio in HEK293 cells exposed to H2O2 ([2]; 30 min of incubation): significantly increased
- NADH/NAD+ ratio in HEK293 cells exposed to H2O2 ([2]; 6 hr of incubation): significantly increased
- extracellular acidification rate (ECAR, a measure of glycolysis) in activated PBMCs [3]: significantly reduced
- production of pro-inflammatory cytokines (e.g., TNF-α, IL-2, IFN-γ) by CD4+ T cells [4]: reduced production of pro-inflammatory cytokines
